Our source for the mutagenic call values is PubChem BioAssay AID1259407 (Chemical Carcinogenesis Research Information System (CCRIS), 2018).

Calls of active or inactive are those of the source. How the calls were made is not given here.

The data set deals with CCRIS mutagenicity, Ames/micronucleus/aberration tests. The data set can be described thus: CCRIS mutagenicity studies.
The mark [1] stands for this setting: Test System: AMES SALMONELLA TYPHIMURIUM, Strain/Indicator: TA98, Metabolic Activation: NONE, Method: PREINCUBATION
Setting [2] is: Test System: AMES SALMONELLA TYPHIMURIUM, Strain/Indicator: TA100, Metabolic Activation: NONE, Method: PREINCUBATION
The mark [3] stands for this setting: Test System: AMES SALMONELLA TYPHIMURIUM, Strain/Indicator: TA100, Metabolic Activation: NONE, Method: STANDARD PLATE.

Take `C[Si](C)(Cl)Cl`: the mutagenic call runs as follows: (Test System: AMES SALMONELLA TYPHIMURIUM, Strain/Indicator: TA98, Metabolic Activation: HAMSTER, LIVER, S-9, AROCLOR 1254, Method: PREINCUBATION) “inactive; negative”; under setting [1], “inactive; negative”; (Test System: AMES SALMONELLA TYPHIMURIUM, Strain/Indicator: TA98, Metabolic Activation: NONE, Method: STANDARD PLATE) “inactive; negative”; (Test System: AMES SALMONELLA TYPHIMURIUM, Strain/Indicator: TA98, Metabolic Activation: RAT LIVER S-9, AROCLOR 1254, Method: STANDARD PLATE) “inactive; negative”; (Test System: AMES SALMONELLA TYPHIMURIUM, Strain/Indicator: TA98, Metabolic Activation: RAT, LIVER, S-9, AROCLOR 1254, Method: PREINCUBATION) “inactive; negative”; (Test System: AMES SALMONELLA TYPHIMURIUM, Strain/Indicator: TA100, Metabolic Activation: HAMSTER, LIVER, S-9, AROCLOR 1254, Method: PREINCUBATION) “inactive; negative”. In addition, the mutagenic call under setting [2] is “inactive; negative”; the mutagenic call under setting [3] was “inactive; negative”; the mutagenic call (Test System: AMES SALMONELLA TYPHIMURIUM, Strain/Indicator: TA100, Metabolic Activation: RAT LIVER S-9, AROCLOR 1254, Method: STANDARD PLATE) was “inactive; negative”; the mutagenic call (Test System: AMES SALMONELLA TYPHIMURIUM, Strain/Indicator: TA100, Metabolic Activation: RAT, LIVER, S-9, AROCLOR 1254, Method: PREINCUBATION) is “inactive; negative”; the mutagenic call (Test System: AMES SALMONELLA TYPHIMURIUM, Strain/Indicator: TA1535, Metabolic Activation: HAMSTER, LIVER, S-9, AROCLOR 1254, Method: PREINCUBATION) is “inactive; negative”; the mutagenic call (Test System: AMES SALMONELLA TYPHIMURIUM, Strain/Indicator: TA1535, Metabolic Activation: NONE, Method: PREINCUBATION) was “inactive; negative”. Further, the mutagenic call (Test System: AMES SALMONELLA TYPHIMURIUM, Strain/Indicator: TA1535, Metabolic Activation: NONE, Method: STANDARD PLATE) is “inactive; negative”; the mutagenic call (Test System: AMES SALMONELLA TYPHIMURIUM, Strain/Indicator: TA1535, Metabolic Activation: RAT LIVER S-9, AROCLOR 1254, Method: STANDARD PLATE) is “inactive; negative”; the mutagenic call (Test System: AMES SALMONELLA TYPHIMURIUM, Strain/Indicator: TA1535, Metabolic Activation: RAT, LIVER, S-9, AROCLOR 1254, Method: PREINCUBATION) was “inactive; negative”; the mutagenic call (Test System: AMES SALMONELLA TYPHIMURIUM, Strain/Indicator: TA1537, Metabolic Activation: HAMSTER, LIVER, S-9, AROCLOR 1254, Method: PREINCUBATION) is “inactive; negative”; the mutagenic call (Test System: AMES SALMONELLA TYPHIMURIUM, Strain/Indicator: TA1537, Metabolic Activation: NONE, Method: PREINCUBATION) was “inactive; negative”; the mutagenic call (Test System: AMES SALMONELLA TYPHIMURIUM, Strain/Indicator: TA1537, Metabolic Activation: NONE, Method: STANDARD PLATE) was “inactive; negative”. The mutagenic call was “inactive; negative” (Test System: AMES SALMONELLA TYPHIMURIUM, Strain/Indicator: TA1537, Metabolic Activation: RAT LIVER S-9, AROCLOR 1254, Method: STANDARD PLATE); “inactive; negative” (Test System: AMES SALMONELLA TYPHIMURIUM, Strain/Indicator: TA1537, Metabolic Activation: RAT, LIVER, S-9, AROCLOR 1254, Method: PREINCUBATION); “inactive; negative” (Test System: AMES SALMONELLA TYPHIMURIUM, Strain/Indicator: TA1538, Metabolic Activation: HAMSTER, LIVER, S-9, AROCLOR 1254, Method: PREINCUBATION); “inactive; negative” (Test System: AMES SALMONELLA TYPHIMURIUM, Strain/Indicator: TA1538, Metabolic Activation: NONE, Method: PREINCUBATION); “inactive; negative” (Test System: AMES SALMONELLA TYPHIMURIUM, Strain/Indicator: TA1538, Metabolic Activation: NONE, Method: STANDARD PLATE); “inactive; negative” (Test System: AMES SALMONELLA TYPHIMURIUM, Strain/Indicator: TA1538, Metabolic Activation: RAT LIVER S-9, AROCLOR 1254, Method: STANDARD PLATE). For the same molecule, the mutagenic call reads like this: (Test System: AMES SALMONELLA TYPHIMURIUM, Strain/Indicator: TA1538, Metabolic Activation: RAT, LIVER, S-9, AROCLOR 1254, Method: PREINCUBATION) “inactive; negative”; (Test System: E. COLI, Strain/Indicator: P3078(POL A-), Metabolic Activation: NONE, Method: SPOT TEST) “inactive; negative”; (Test System: E. COLI, Strain/Indicator: P3078 POLA, Metabolic Activation: RAT LIVER S-9, AROCLOR 1254, Method: SPOT TEST) “inactive; negative”; (Test System: E. COLI, Strain/Indicator: W3110, Metabolic Activation: NONE, Method: SPOT TEST) “inactive; negative”; (Test System: E. COLI, Strain/Indicator: W3110, Metabolic Activation: RAT LIVER S-9, AROCLOR 1254, Method: SPOT TEST) “inactive; negative”; (Test System: MOUSE LYMPHOMA, Strain/Indicator: L5178Y (TK+/TK-), Metabolic Activation: RAT, LIVER, S-9, AROCLOR 1254, Method: SUSPENSION/PLATE) “inactive; negative. reevaluation of results: inconclusive”. Further, the mutagenic call (Test System: MOUSE LYMPHOMA, Strain/Indicator: L5178Y (TK+/TK-), Metabolic Activation: RAT, LIVER, S-9, Method: SUSPENSION/PLATE) was “inactive; negative”.

Turning to `O=C(NCc1ccccc1)C(Cl)c1ccccc1` (centres undefined), the mutagenic call (Test System: AMES SALMONELLA TYPHIMURIUM, Strain/Indicator: TA100, Metabolic Activation: MOUSE, LIVER, S-9, AROCLOR 1254, Method: STANDARD PLATE) is “inactive; negative” and the mutagenic call under setting [3] was “active; positive”.

With `Clc1cccc2cccnc12`, the mutagenic call runs as follows: (Test System: AMES SALMONELLA TYPHIMURIUM, Strain/Indicator: TA100, Metabolic Activation: RAT, LIVER, S-9, PHENOBARBITAL AND 5,6-BENZOFLAVONE, Method: PREINCUBATION) “active; positive”; (Test System: AMES SALMONELLA TYPHIMURIUM, Strain/Indicator: TA100, Metabolic Activation: S-9, Method: PREINCUBATION) “inactive; negative”.

Consider `O=S(=O)(O)c1ccc(N=Nc2c(O)c(S(=O)(=O)O)cc3cc(S(=O)(=O)O)ccc23)cc1`, for which the mutagenic call is “inactive; negative” under setting [1]; “inactive; negative” (Test System: AMES SALMONELLA TYPHIMURIUM, Strain/Indicator: TA98, Metabolic Activation: RAT, LIVER, S-9, PHENOBARBITAL, Method: PREINCUBATION); “inactive; negative” under setting [2]; “inactive; negative” (Test System: AMES SALMONELLA TYPHIMURIUM, Strain/Indicator: TA100, Metabolic Activation: RAT, LIVER, S-9, PHENOBARBITAL, Method: PREINCUBATION).

As for `N=c1ccn2c(n1)O[C@H]1[C@H](O)[C@@H](CO)O[C@H]12`, the mutagenic call (Test System: AMES SALMONELLA TYPHIMURIUM, Strain/Indicator: TA98, Metabolic Activation: S-9, Method: STANDARD PLATE) is “inactive; negative”; the mutagenic call (Test System: AMES SALMONELLA TYPHIMURIUM, Strain/Indicator: TA100, Metabolic Activation: S-9, Method: STANDARD PLATE) is “inactive; negative”; the mutagenic call (Test System: AMES SALMONELLA TYPHIMURIUM, Strain/Indicator: TA1537, Metabolic Activation: S-9, Method: STANDARD PLATE) was “inactive; negative”; the mutagenic call (Test System: E. COLI, Strain/Indicator: WP2 (HCR), Metabolic Activation: S-9, Method: STANDARD PLATE) is “inactive; negative”.

As to `ClCC1(CCl)[C@H]2CC(Cl)(Cl)[C@]1(CCl)[C@@H](Cl)[C@@H]2Cl`, under setting [2], the mutagenic call was “inactive; negative”.
